According to patent US10292972B1, “Pharmaceutical composition for treating cancer and a method thereof” (King Abdulaziz University, priority 2017, dated 2019):

Experiments:
Type in all cases: cell-based, human
MCF7 breast cancer cells [1] = assay: RNA-Seq gene expression profiling of isopicrinine-treated MCF7 cells; conditions: MCF7, vs DMSO control, dose not given
Procedure: MCF7 cells (1.6×10^5 cells) were treated with varying doses (sub-lethal) of purified isopicrinine i.e., 30 μM and 150 μM, in triplicates, for 18 hrs at 37° C. Total RNA was extracted using TRIzol reagent. Gene expression analyses of drug-treated MCF7 cells in the presence of sub-lethal concentrations of isopicrinine were performed using Illumina HiSeq. Each RNA was ribo-depleted (Ribo-Zero, Epicentre) prior to cDNA libarary preparation (ScriptSeq epicenter). Each cDNA was separately barcode tagged during library preparation, and sequenced in multiplex generating approximately >40 million 100 bp reads per sample for the mammalian cell line. The Illumina reads were mapped to their respective assembled reference transcriptome sequence using the mapping software TopHat and Cufflinks (Trapnell, C., Pachter, L., Salzberg, S. L. 2009. TopHat: discovering splice junctions with RNA-Seq. Bioinformatics, May 1; 25(9):1105-11. doi: 10.1093/bioinformatics/btp120, incorporated herein by reference in its entirety). Illumina read abundances mapping to each reference contig was normalized using the RPKM (reads per Kb per million reads) calculation. Differentially expressed transcripts were identified and functionally annotated using a variety of statistical analyses available via bioconductor in R language (Durinck, S., Moreau, Y., Kasprzyk, A., Davis, S., De Moor, B., Brazma, A., Huber, W. 2005. BioMart and Bioconductor: a powerful link between biological databases and microarray data analysis. Bioinformatics, 21(16), 3439-3440. doi: 10.1093/bioinformatics/bti525, incorporated herein by reference in its entirety). Clusters of differentially expressed and cycling transcripts were annotated to identify over-represented GO/KEGG pathways (Kanehisa, M., Goto, S., Sato, Y., Furumichi, M., Tanabe, M., 2012. KEGG for integration and interpretation of large-scale molecular data sets. Nucleic Acids Res., 40 (Database issue), D109-14. doi: 10.1093/nar/gkr988, incorporated herein by reference in its entirety).
MCF7 cell line was treated with sub-lethal doses of 30 μM and 150 μM of isopicrinine. […] RNA-Seq transcription profiling was performed for analyzing the transcriptome profile in alkaloid treated MCF7 cells in order to evaluate the pharmacological effects of the new alkaloid isolated from Rhazya stricta. To identify the differentially regulated/expressed genes after treatment with isopicrinine, RNA was extracted from alkaloid treated MCF7 cells (30 μM and 150 μM doses) and DMSO-treated control cells and RNA-Seq experiment was carried out. The sequencing data were compared and analyzed to identify the differentially expressed genes in mammalian cells after treatment with isopicrinine.

MCF7 breast cancer cells [2] = assay: as above; conditions: MCF7, 30 μM and 150 μM
MCF7 breast cancer cells [3] = assay: cells
Procedure: MCF7, a breast cancer cell line was procured from the American Type Culture Collection (ATCC) and propagated in Dulbecco's Modified Eagle's medium (DMEM) supplemented with 10% (v/v) fetal bovine serum (FBS), 100 μg/ml streptomycin and 100 U/ml penicillin at 37° C. in a humidified incubator with 5% CO2. Human pancreatic cell lines, AsPC1 and PANC1, were obtained from the American Type Culture Collection (ATCC). AsPC1 cell line was grown in RPMI-1640 medium supplemented with 10% (v/v) fetal bovine serum (FBS), 100 μg/ml streptomycin and 100 U/ml penicillin. PANC1 cell line was cultured in DMEM supplemented with 10% (v/v) fetal bovine serum (FBS), 100 μg/ml streptomycin and 100 U/ml penicillin.
MCF7 cells (2×10^4 cells/well) were sub-cultured in 24-well plate and incubated at 37° C. in a humidified incubator with 5% CO2 for 20 hrs. […] After the drug treatment, cells were analysed under phase contrast microscope. […]
MCF7 cells (2×10^4 cells/well) were treated with 3 μM, 30 μM, 300 μM, 600 μM, 1.5 mM of isopicrinine at 37° C. in a humidified incubator with 5% CO2 for 20 hrs. After the drug treatment, cells were analysed under phase contrast microscope. Cytotoxicity was detected at 300 μM concentration onwards in all the samples. […] The nuclear morphological changes, which are mainly associated with apoptosis were analysed by Hoechst 33342 staining. […]

[4] = Response to DNA damage stimulus

For `C/C=C1\CN2[C@H]3C[C@@H]1[C@@H](C(=O)OC)[C@]14C[C@H]2O[C@]31Nc1ccccc14` [isopicrinine], the “log2 (fold change) HIST2H3PS2” value (MCF7 breast cancer cells [1]; Chromosone Organization) was −1.3321, the “log2 (fold change) HIST2H4A” value (MCF7 breast cancer cells [1]; Chromosone Organization) was −2.138 and the “log2 (fold change) AGBL2” value (MCF7 breast cancer cells [1]; Cytoskeleton) was 2.627. For the same compound, the “log2 (fold change) DLG2” value (MCF7 breast cancer cells [1]; Cytoskeleton) was 2.268, the “log2 (fold change) DRP2” value (MCF7 breast cancer cells [1]; Cytoskeleton) was 2.047 and the “log2 (fold change) KRT81” value (MCF7 breast cancer cells [1]; Cytoskeleton) was 1.797. The “log2 (fold change) PTP4A1” value (MCF7 breast cancer cells [1]; Cytoskeleton) was 1.331, the “log2 (fold change) BRCA1” value (MCF7 breast cancer cells [1]; DNA repair) was −1.076 and the “log2 (fold change) EXO1” value (MCF7 breast cancer cells [1]; DNA repair) was −1.784. For the same compound, the “log2 (fold change) RAD51AP1” value (MCF7 breast cancer cells [1]; DNA repair) was −1.652, the “log2 (fold change) UHRF1” value (MCF7 breast cancer cells [1]; DNA repair) was −1.1337 and the “log2 (fold change) CDC45” value (MCF7 breast cancer cells [1]; DNA replication) was −1.801. For the same compound, the “log2 (fold change) MCM3” value (MCF7 breast cancer cells [1]; DNA replication) was −1.644, the “log2 (fold change) MCM4” value (MCF7 breast cancer cells [1]; DNA replication) was −1.522 and the “log2 (fold change) MCM5” value (MCF7 breast cancer cells [1]; DNA replication) was −1.878. For the same compound, the “log2 (fold change) MCM6” value (MCF7 breast cancer cells [1]; DNA replication) was −1.423, the “log2 (fold change) MCM7” value (MCF7 breast cancer cells [1]; DNA replication) was −1.716 and the “log2 (fold change) MCM8” value (MCF7 breast cancer cells [1]; DNA replication) was −1.013. The “log2 (fold change) MCM10” value (MCF7 breast cancer cells [1]; DNA replication) was −1.321, the “log2 (fold change) RFC3” value (MCF7 breast cancer cells [1]; DNA replication) was −1.142 and the “log2 (fold change) RRM2” value (MCF7 breast cancer cells [1]; DNA replication) was −1.2797. The “log2 (fold change) TOP2A” value (MCF7 breast cancer cells [1]; DNA replication) was −1.662, the “log2 (fold change) BBC3” value (MCF7 breast cancer cells [1]; Induction of apoptosis) was 1.481 and the “log2 (fold change) CDKN1A” value (MCF7 breast cancer cells [1]; Induction of apoptosis) was 1.119. The “log2 (fold change) INHBA” value (MCF7 breast cancer cells [1]; Induction of apoptosis) was 1.026, the “log2 (fold change) MAGED1” value (MCF7 breast cancer cells [1]; Induction of apoptosis) was 0.8954 and the “log2 (fold change) LTBP4” value (MCF7 breast cancer cells [1]; Regulation of cell growth) was 1.504. The “log2 (fold change) SPP1” value (MCF7 breast cancer cells [1]; Regulation of cell growth) was 1.075, the “log2 (fold change) VGF” value (MCF7 breast cancer cells [1]; Regulation of cell growth) was 0.9472 and the “log2 (fold change) ATAD2” value (MCF7 breast cancer cells [1]; Regulation of transcription) was −1.388. For the same compound, the “log2 (fold change) ATAD5” value (MCF7 breast cancer cells [1]; Regulation of transcription) was −1.628, the “log2 (fold change) ATF3” value (MCF7 breast cancer cells [1]; Regulation of transcription) was 1.3961 and the “log2 (fold change) BRIP1” value (MCF7 breast cancer cells [1]; Regulation of transcription) was −1.416. For the same compound, the “log2 (fold change) EGR1” value (MCF7 breast cancer cells [1]; Regulation of transcription) was 1.39, the “log2 (fold change) FHL2” value (MCF7 breast cancer cells [1]; Regulation of transcription) was 1.024 and the “log2 (fold change) MDM2” value (MCF7 breast cancer cells [1]; Regulation of transcription) was 1.725. The “log2 (fold change) MXI1” value (MCF7 breast cancer cells [1]; Regulation of transcription) was 1.118, the “log2 (fold change) MYBL2” value (MCF7 breast cancer cells [1]; Regulation of transcription) was −1.231 and the “log2 (fold change) NRG1” value (MCF7 breast cancer cells [1]; Regulation of transcription) was 0.8825. For the same compound, the “log2 (fold change) BTG2” value (MCF7 breast cancer cells [1]; [4]) was 1.485, the “log2 (fold change) CCND1” value (MCF7 breast cancer cells [1]; [4]) was 1.49 and the “log2 (fold change) DDB2” value (MCF7 breast cancer cells [1]; [4]) was 1.191. The “log2 (fold change) GADD45A” value (MCF7 breast cancer cells [1]; [4]) was 1.333, the “cell proliferation at low doses compared to DMSO control” value (MCF7 breast cancer cells [2]) was “prevented further cell proliferation” and the IC50 (MCF7 breast cancer cells [3]; Homo sapiens, MCF7, 20 h, read-out: IC50 value (cytotoxic activity against MCF7 cells)) was 240 µM. The “cell morphology after treatment with high doses” value (MCF7 breast cancer cells [3]; MCF7, FIGS. 2D-2F (300, 600, 1,500 μM)) was “cell shrinkage, cellular detachment and loss of adherent morphology”.
